Results published in ChEMBL document CHEMBL3885861, “Open TG-GATES”.

Species: Rattus norvegicus
Test: Open TG-GATES - Regimen: Single
Format: toxicity, organism-based, Sprague-Dawley
Parameters: regimen Single, gender Male, age 6 weeks
Conditions: in vivo, po, 50 mg/kg, route gavage, dose level Middle; for APTT / Bas / Eos / Fbg / Hb / Ht / Lym / MCH / MCHC / MCV / Mono / Neu / PT / Plat / RBC / Ret / WBC: tissue Blood; for KIDNEY_L / KIDNEY_R / KIDNEY_TOTAL: tissue Kidney; for LIVER: tissue Liver; for A/G / ALP / ALT / AST / BUN / CRE / Ca / Cl / DBIL / GLC / IP / K / LDH / Na / PL / RALB / TBIL / TC / TG / TP / gamma-GTP: tissue Plasma

## CC1=C(CC(=O)O)c2cc(F)ccc2/C1=C\c1ccc([S+](C)[O-])cc1 (configuration not stated)
3 h
  TERMINAL_BW: 204.9 g
  APTT: 16.8 s
  Bas: 0%
  Eos: 1%
  Fbg: 266 mg/dL
  Hb: 13.2 g/dL
  Ht: 40.3%
  Lym: 77.6%
  MCH: 21.2 pg
  MCHC: 32.7%
  MCV: 65 fL
  Mono: 2.6%
  Neu: 18.4%
  PT: 14.1 s
  Plat: 130.3 x10_4/uL
  RBC: 620.8 x10_4/ul
  Ret: 8.7%
  WBC: 77.3 x10_2/uL
  KIDNEY_L: 0.9 g
  KIDNEY_R: 0.9 g
  KIDNEY_TOTAL: 1.8 g
  LIVER: 9 g
  A/G: 0.9
  ALP: 1442.8 IU/L
  ALT: 43.4 IU/L
  AST: 76.2 IU/L
  BUN: 11.4 mg/dL
  CRE: 0.2 mg/dL
  Ca: 11 mg/dL
  Cl: 104.8 meq/L
  DBIL: 0.01 mg/dL
  GLC: 166.8 mg/dL
  IP: 8.6 mg/dL
  K: 3.9 meq/L
  LDH: 81.4 IU/L
  Na: 141.6 meq/L
  PL: 140.4 mg/dL
  RALB: 2.5 g/dL
  TBIL: 0.046 mg/dL
  TC: 74.6 mg/dL
  TG: 58.8 mg/dL
  TP: 5.3 g/dL
  gamma-GTP: 1.2 IU/L
6 h
  TERMINAL_BW: 201.8 g
  APTT: 15.7 s
  Bas: 0%
  Eos: 0.8%
  Fbg: 289.4 mg/dL
  Hb: 13.7 g/dL
  Ht: 42.1%
  Lym: 78.4%
  MCH: 21.1 pg
  MCHC: 32.6%
  MCV: 64.6 fL
  Mono: 3%
  Neu: 17.2%
  PT: 13.8 s
  Plat: 113.6 x10_4/uL
  RBC: 652.4 x10_4/ul
  Ret: 7.8%
  WBC: 73.5 x10_2/uL
  KIDNEY_L: 0.9 g
  KIDNEY_R: 0.9 g
  KIDNEY_TOTAL: 1.9 g
  LIVER: 8.4 g
  A/G: 0.9
  ALP: 1437 IU/L
  ALT: 44.4 IU/L
  AST: 69.8 IU/L
  BUN: 10.8 mg/dL
  CRE: 0.2 mg/dL
  Ca: 11 mg/dL
  Cl: 106 meq/L
  DBIL: 0.01 mg/dL
  GLC: 172.4 mg/dL
  IP: 9.4 mg/dL
  K: 4.3 meq/L
  LDH: 69.6 IU/L
  Na: 141 meq/L
  PL: 135.6 mg/dL
  RALB: 2.6 g/dL
  TBIL: 0.044 mg/dL
  TC: 70.8 mg/dL
  TG: 47.8 mg/dL
  TP: 5.3 g/dL
  gamma-GTP: 1 IU/L
9 h
  TERMINAL_BW: 202.2 g
  APTT: 16.8 s
  Bas: 0%
  Eos: 0.8%
  Fbg: 291.6 mg/dL
  Hb: 13.5 g/dL
  Ht: 41.5%
  Lym: 79.4%
  MCH: 20.6 pg
  MCHC: 32.6%
  MCV: 63.2 fL
  Mono: 2.6%
  Neu: 16.8%
  PT: 14 s
  Plat: 117.4 x10_4/uL
  RBC: 656.4 x10_4/ul
  Ret: 7.8%
  WBC: 67.5 x10_2/uL
  KIDNEY_L: 0.9 g
  KIDNEY_R: 0.9 g
  KIDNEY_TOTAL: 1.9 g
  LIVER: 8.2 g
  A/G: 0.9
  ALP: 1341.4 IU/L
  ALT: 42.2 IU/L
  AST: 67.8 IU/L
  BUN: 11.2 mg/dL
  CRE: 0.2 mg/dL
  Ca: 10.8 mg/dL
  Cl: 106.6 meq/L
  DBIL: 0.01 mg/dL
  GLC: 177.6 mg/dL
  IP: 9.9 mg/dL
  K: 4.4 meq/L
  LDH: 65.6 IU/L
  Na: 142 meq/L
  PL: 135 mg/dL
  RALB: 2.6 g/dL
  TBIL: 0.04 mg/dL
  TC: 71.6 mg/dL
  TG: 38 mg/dL
  TP: 5.3 g/dL
  gamma-GTP: 1.2 IU/L
24 h
  TERMINAL_BW: 210.3 g
  APTT: 16.1 s
  Bas: 0%
  Eos: 0.6%
  Fbg: 354.6 mg/dL
  Hb: 13.7 g/dL
  Ht: 42.2%
  Lym: 62%
  MCH: 21 pg
  MCHC: 32.5%
  MCV: 64.8 fL
  Mono: 3.2%
  Neu: 33.8%
  PT: 13.5 s
  Plat: 133.9 x10_4/uL
  RBC: 653.2 x10_4/ul
  Ret: 7.9%
  WBC: 115.7 x10_2/uL
  KIDNEY_L: 0.9 g
  KIDNEY_R: 0.9 g
  KIDNEY_TOTAL: 1.9 g
  LIVER: 9.7 g
  A/G: 1
  ALP: 1280.2 IU/L
  ALT: 43 IU/L
  AST: 67.8 IU/L
  BUN: 14.6 mg/dL
  CRE: 0.2 mg/dL
  Ca: 11 mg/dL
  Cl: 103.4 meq/L
  DBIL: 0.01 mg/dL
  GLC: 189.6 mg/dL
  IP: 7.9 mg/dL
  K: 4 meq/L
  LDH: 86.2 IU/L
  Na: 141 meq/L
  PL: 141.8 mg/dL
  RALB: 2.5 g/dL
  TBIL: 0.024 mg/dL
  TC: 78.4 mg/dL
  TG: 88.4 mg/dL
  TP: 5.2 g/dL
  gamma-GTP: 1 IU/L
